Read-outs that look alike come from different tables or passages of the source.
Target: T1, human recombinant COX2 (hCOX2) (UniProt P35354)
T1 sequence (P35354 1-604): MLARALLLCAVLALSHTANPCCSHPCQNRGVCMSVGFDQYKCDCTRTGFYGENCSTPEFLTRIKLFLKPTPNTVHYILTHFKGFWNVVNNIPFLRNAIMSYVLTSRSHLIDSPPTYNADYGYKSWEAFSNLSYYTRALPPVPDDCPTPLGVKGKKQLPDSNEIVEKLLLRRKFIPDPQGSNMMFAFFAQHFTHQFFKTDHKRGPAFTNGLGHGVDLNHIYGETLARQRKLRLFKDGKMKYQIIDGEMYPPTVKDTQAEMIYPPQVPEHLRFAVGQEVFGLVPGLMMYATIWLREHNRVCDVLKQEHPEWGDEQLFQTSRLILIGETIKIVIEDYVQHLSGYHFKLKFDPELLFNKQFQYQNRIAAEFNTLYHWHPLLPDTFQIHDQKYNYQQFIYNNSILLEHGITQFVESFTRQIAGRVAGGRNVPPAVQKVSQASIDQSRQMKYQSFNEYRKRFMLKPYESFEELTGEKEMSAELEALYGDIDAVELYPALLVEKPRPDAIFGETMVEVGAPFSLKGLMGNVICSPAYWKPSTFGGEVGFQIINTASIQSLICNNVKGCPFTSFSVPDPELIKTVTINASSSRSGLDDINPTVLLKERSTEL
Experiment: LCMS-based COX2 enzymatic inhibition assay (PGE2 quantification)
Type: biochemical
Set-up: COX2 2 minutes pge2/pge2d4 area ratio Avg; other: 2 minutes; readout pge2/pge2d4 area ratio; average; COX2 2 minutes pge2/pge2d4 area ratio Avg; LLE; average LLE; COX2 2 minutes pge2 area (counts) Avg; readout pge2 area (counts); other: 2 min; "ovine COX2 (oCOX2), human recombinant COX2 (hCOX2)"
Settings: for COX2 2 minutes pge2/pge2d4 area ratio Avg. LLE / COX2 2 minutes pge2 area (counts) Avg. LLE / COX2 10 minutes pge2 area (counts) Avg. LLE: average LLE; for IC50: average
Protocol: We have adapted a previously reported cyclooxygenase enzymatic assay utilizing LCMS quantification of PGE2 as the product of COX-1 and COX2 catalyzed conversion of arachidonic acid to evaluate the binding properties of newly synthesized ligands [Cao, 2011]. These optimized and miniaturized (384-well plates) LCMS-based COX-1 and COX2 enzymatic assays enabled us to quickly evaluate newly synthesized ligands for COX2 binding affinity and selectivity vs COX-1. Using a shorter ligand-enzyme incubation time in the LCMS assay (2 minutes vs 10 minutes) also permitted us to prioritize ligands with faster binding kinetics. Considering the relatively slow on-rate kinetics of known coxibs, due to their 3-step binding mechanism [Marnett, 2009], we believe that optimizing this critical parameter will be key to the successful development of a COX2 PET tracer. Using these enzymatic assays, we have evaluated>200 newly synthesized ligands against COX2 and >20 ligands against COX-1. Another critical property necessary for a good PET radiotracer is to have low non-specific binding (NSB) to increase the free fraction and maximize the signal to noise ratio. This property can be evaluated using in-vitro protein binding assays, and we have now evaluated>50 newly synthesized ligands in mouse, rat and human plasma protein binding (PPB) assays as well as >15 ligands in a mouse brain protein binding (BPB) assay.
Ovine COX-1 (oCOX-1), ovine COX2 (oCOX2), human recombinant COX2 (hCOX2), arachidonic acid, PGE2, d4-PGD2, and […] (labeled with deuterium atoms at positions 3 and 4) were purchased from Cayman Chemicals (Ann Arbor, Mich.). The cofactors (−)epinephrine and hematin, and the COX inhibitors indomethacin, resveratrol and diclofenac were purchased from Sigma-Aldrich (St. Louis, Mo.). Celecoxib was purchased from 3B PharmaChem International (Wuhan, China). All organic solvents were HPLC grade or better and were purchased from Thermo Fisher (Hanover Park, Ill.). Formic acid was purchased from EMD Chemicals (San Diego, Calif.). Purified water was prepared by using a Millipore Milli-Q purification system (Millipore, Billerica, Mass.). All other chemicals and solvents were ACS reagent grade, unless stated otherwise.
In an Eppendorf tube, 146 μL of 100 mM Tris.HCl (pH 8.0) buffer, 2 μL of 100 μM hematin (co-factor) and 10 μL of 40 mM L-epinephrine (co-factor) were mixed at room temperature. Next, 20 μL of Tris.HCl (pH 8.0) buffer containing 0.2 μg COX2 or 0.1 μg COX-1 (approximately 1 unit of enzyme; 1 unit COX utilizes 1 nmol 02/mg/min at 37° C.) was added, and the solution was incubated at room temperature for 2 min. A 2 μL aliquot of the COX inhibitor in DMSO was added to the enzyme solution and preincubated at 37° C. for 10 min. Negative controls were identical except that 2 μL aliquots of DMSO without inhibitor were used instead.
Each COX reaction was initiated by adding 20 μL of arachidonic acid in Tris.HCl (pH 8.0) buffer to give a final concentration of 5 μM; and the reaction was terminated after 2 min by adding 20 μL of 2.0 M HCl. The surrogate standards d4-PGE2 and d4-PGD2 (10 μL aliquot of 50 ng/mL solution in methanol) were added to correct for errors or degradation during sample handling and for variation in injection volume or instrument response during LC-MS-MS. After 30 min, PGE2, PGD2 and their surrogate standards were extracted from each incubation mixture using 800 μL hexane/ethyl acetate (50:50, v/v). The organic phase was removed, evaporated to dryness, and reconstituted in 100 μL methanol/water (50:50, v/v) for analysis using LC-MS-MS.
The concentration of PGE2 in each sample was measured using LC-MS-MS, and the percent of COX inhibition by each test solution was determined by comparing the amount of PGE2 produced in the experiment with that produced in the negative control incubation. The formation of PGD2 was measured for quality control purposes, since the levels of PGD2 should be proportional to those of PGE2. […]

[1] = 2 minutes, readout pge2/pge2d4 area ratio
[2] = 2 minutes, readout pge2/pge2d4 area ratio, read-out: COX2 2 minutes pge2/pge2d4 area ratio Avg. IC50
[3] = 2 minutes, readout pge2 area (counts)
[4] = 2 minutes, readout pge2 area (counts), read-out: COX2 2 minutes pge2 area (counts) Avg. IC50
[5] = read-out: COX2 2 minutes pge2/pge2d4 area ratio Avg. IC50 (microM), 2 minutes, readout pge2/pge2d4 area ratio
[6] = 10 minutes, readout pge2 area (counts)
[7] = 10 minutes, readout pge2 area (counts), read-out: COX2 10 minutes pge2 area (counts) Avg. IC50

COX2 2 minutes pge2/pge2d4 area ratio Avg. LLE [1] | IC50 [2] [µM] | COX2 2 minutes pge2 area (counts) Avg. LLE [3] | IC50 [4] [µM] | COX2 10 minutes pge2 area (counts) Avg. LLE [6] | IC50 [7] [µM] | Compound | IC50 [5] [µM]
3.43 | 0.0711 | 3.477 | 0.091 | – | – | CS(=O)(=O)c1ccc(-c2cccc(OCc3ccc(F)cc3)n2)cc1 [Compound 95] | –
3.159 | 3.36 | 3.163 | 3.3 | – | – | CC(=O)c1ncc(NCc2cccs2)nc1-c1ccc(S(C)(=O)=O)cc1 [Compound 248] | –
2.424 | 5.2 | – | – | – | – | CS(=O)(=O)c1ccc(-c2cccc(C[C@@H](O)c3cccs3)n2)cc1 [Compound 292] | –
– | – | – | – | – | – | CS(=O)(=O)c1ccc(-c2cc3c(cn2)cnn3Cc2cccs2)cc1 [Compound 301] | 5.2
2.95 | 4.84 | 2.934 | – | – | – | CS(=O)(=O)c1ccc(-c2cccc([S@@+]([O-])Cc3cccs3)n2)cc1 [Compound 266] | –
4.199 | 3.72 | 4.054 | – | – | – | CS(=O)(=O)c1ccc(-c2cncc(OC[C@H]3CCCO3)n2)cc1 [Compound 252] | –
– | – | – | – | – | – | CS(=O)(=O)c1ccc(-c2cncc([S+]([O-])Cc3cccs3)n2)cc1 (centres unmarked) [Compound 303] | 5.2
4.491 | 0.409 | 4.597 | 0.319 | – | – | COc1ncc(NCc2cncs2)nc1-c1ccc(S(C)(=O)=O)cc1 [Compound 163] | –
4.51 | 1.01 | 4.612 | 0.832 | – | – | CS(=O)(=O)c1ccc(-c2cncc(NCc3cncs3)n2)cc1 [Compound 201] | –
2.595 | 0.411 | 2.638 | 0.368 | 3.534 | 0.0503 | CS(=O)(=O)c1ccc(-c2ncc3ncn(Cc4cccs4)c3n2)cc1 [Compound 164] | –
3.18 | 1.43 | 3.779 | 1.23 | 3.305 | 1.64 | CS(=O)(=O)c1ccc(-c2cncc(Oc3ccc(F)cc3)n2)cc1 [Compound 211] | –
3.1763 | 2.4 | 3.075 | 2.73 | – | – | CS(=O)(=O)c1ccc(-c2cccc(NCc3ncco3)n2)cc1 [Compound 231] | –
4.063 | 4.55 | 4.034 | – | – | – | CS(=O)(=O)c1ccc(-c2cnc(C(=O)O)c(NCc3cccs3)n2)cc1 [Compound 261] | –
– | – | – | – | – | – | CS(=O)(=O)c1ccc(Oc2cccc(NCc3cccs3)n2)cc1 [Compound 310] | 5.2
4.092 | 2.54 | 4.092 | 2.5 | – | – | COc1ncc(NCc2ncco2)nc1-c1ccc(S(C)(=O)=O)cc1 [Compound 236] | –
3.641 | 0.114 | 3.56 | 0.153 | – | – | CS(=O)(=O)c1ccc(-c2cnc(C(F)(F)F)c(OCc3cccs3)n2)cc1 [Compound 118] | –
5.484 | 0.268 | 5.518 | 0.255 | – | – | CS(=O)(=O)c1ccc(-c2cncc(SCc3ccon3)n2)cc1 [Compound 148] | –
2.7806 | 2.82 | 2.394 | – | 2.9969 | 1.31 | CS(=O)(=O)c1ccc(-c2cncc(NC34CC5CC(CC(C5)C3)C4)n2)cc1 [Compound 240] | –
4.781 | 0.361 | 4.751 | 0.381 | – | – | CS(=O)(=O)c1ccc(-c2nc(NCc3cccs3)cnc2C#N)cc1 [Compound 159] | –
4.686 | 1.63 | 4.669 | 1.69 | – | – | CS(=O)(=O)c1ccc(-c2cnc(C(N)=O)c(NCc3cccs3)n2)cc1 [Compound 219] | –
2.294 | 0.0991 | 2.242 | 0.113 | – | – | CS(=O)(=O)c1ccc(-c2cnc3ccn(Cc4cccs4)c3c2)cc1 [Compound 111] | –
4.932 | 0.0933 | 4.948 | 0.0881 | – | – | COc1ncc(NCc2nccs2)nc1-c1ccc(S(C)(=O)=O)cc1 [Compound 107] | –
4.451 | 0.158 | 3.942 | 0.975 | – | – | CS(=O)(=O)c1ccc(-c2cncc(Oc3ccccc3)n2)cc1 [Compound 132] | –
– | 0.293 | – | 0.233 | – | – | CS(=O)(=O)c1ccc(-n2ccc3ccc(C(=O)c4cccs4)nc32)cc1 [Compound 151, [1-(4-methylsulfonylphenyl)pyrrolo[2,3-b]pyridin-6-yl]-(2-thienyl)methanone] | –

Compound | COX2 2 minutes pge2/pge2d4 area ratio Avg. LLE [1] | IC50 [2] [µM] | COX2 2 minutes pge2 area (counts) Avg. LLE [3] | IC50 [4] [µM] | COX2 10 minutes pge2 area (counts) Avg. LLE [6] | IC50 [7] [µM] | IC50 [5] [µM]
CS(=O)(=O)c1ccc(-c2cccc(C3CC3c3ccoc3)n2)cc1 (single isomer, unassigned) [Compound 115, 2-[2-(furan-3-yl)cyclopropyl]-6-(4-methanesulfonylphenyl)pyridine] | 2.867 | 0.107 | 2.982 | 0.0632 | – | – | –
CS(=O)(=O)c1ccc(-c2cncc(NCc3ncc[nH]3)n2)cc1 [Compound 279] | 4.334 | – | 4.334 | – | – | – | 5.2
